# Data taken from patent publication US20020111274A1, “1-alkyl-3-[1-(substituted phenyl) benzotriazol-6-yl] uracils” (BASF Aktiengesellschaft, priority 2000, published 2002).
# Legend:
# [1] = system: CHEAL Lambsquarters, Common; assay: Postemergence herbicidal evaluation, CHEAL; format: in vivo, Chenopodium album, L.; parameters: scale not given here; details: 0.062 kg/ha, postemergence spray, rated about two-three weeks after treatment
# Outline: (§1)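 Visual injury rating ~2–3 wk post-spray; replicate tests averaged. Two-week-old seedlings; foliar spray at 40 psi; 0.006–0.400 kg ai/ha in 80/20 acetone/water + 1.0% methylated seed oil.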
# ABUTH Velvetleaf = assay: Preemergence herbicidal evaluation, ABUTH; format: in vivo, Abutilon theophrasti, Medic.; parameters: scale not given here; details: preemergence
# Outline: (§2)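 Preemergence soil spray: aqueous acetone, ~0.013–0.800 kg/ha, applied right after sowing (seed/potting-soil mix over ~1 in soil). Greenhouse, routine watering. Scored 4–5 wk post-treatment on a rating scale.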
# CASOB Sicklepod [2] = assay: Preemergence herbicidal evaluation, CASOB; format: in vivo, Cassia obtusifolia, L.; parameters: scale not given here; details: preemergence
# Outline: as §2
# ZEAMX Corn, Field = assay: Preemergence herbicidal evaluation, ZEAMX; format: in vivo, Zea mays, L. (Sammel-Bezeichnung); parameters: scale not given here; details: preemergence
# Outline: as §2
# GLXMAW Soybean, Williams [3] = assay: Postemergence herbicidal evaluation, GLXMAW; format: in vivo, Glycine max, (L.) Merr. cv Williams; parameters: scale not given here; details: postemergence spray, rated about two-three weeks after treatment
# Outline: as §1
# [4] = system: TRZAWR Wheat, Winter, cv Riband; assay: Preemergence herbicidal evaluation, TRZAWR; format: in vivo, Triticum aestivum; parameters: scale not given here; details: preemergence, rate 0.062 kg/ha
# Outline: as §2
# ORYSAT Rice, Tebonnet = assay: Postemergence herbicidal evaluation, ORYSAT; format: in vivo, Oryza sativa, (L.); parameters: scale not given here; details: postemergence spray, rated about two-three weeks after treatment
# Outline: as §1
# GLXMAW Soybean, Williams [5] = assay: Preemergence herbicidal evaluation, GLXMAW; format: in vivo, Glycine max, (L.) Merr. cv Williams; parameters: scale not given here; details: preemergence
# Outline: as §2
# AMBEL Ragweed, Common [6] = assay: Postemergence herbicidal evaluation, AMBEL; format: in vivo, Ambrosia artemisifolia, L.; parameters: scale not given here; details: postemergence spray, rated about two-three weeks after treatment
# Outline: as §1
# AMBEL Ragweed, Common [7] = assay: Preemergence herbicidal evaluation, AMBEL; format: in vivo, Ambrosia artemisifolia, L.; parameters: scale not given here; details: preemergence
# Outline: as §2
# GALAP Galium = assay: Postemergence herbicidal evaluation, GALAP; format: in vivo, Galium aparine; parameters: scale not given here; details: postemergence spray, rated about two-three weeks after treatment
# Outline: as §1
# ECHOG Barnyardgrass = assay: Preemergence herbicidal evaluation, ECHOG; format: in vivo, Echinochloa crus-galli, (L.) Beau; parameters: scale not given here; details: preemergence
# Outline: as §2
# CASOB Sicklepod [8] = assay: Postemergence herbicidal evaluation, CASOB; format: in vivo, Cassia obtusifolia, L.; parameters: scale not given here; details: postemergence spray, rated about two-three weeks after treatment
# Outline: as §1
compound,measurement,setting,value
"CCc1ccc(-n2nnc3cc(F)c(-n4c(=O)cc(C(F)(F)F)n(C)c4=O)cc32)cc1 [Example 17, 3-[1-(4-ethylphenyl)-5-fluoro-1H-1,2,3-benzotriazol-6-yl]-1-methyl-6-(trifluoromethyl)-2,4(1H,3H)-pyrimidinedione]",Postemergence herbicidal rating CHEAL,[1],9.0
same,ABUTH herbicidal rating,ABUTH Velvetleaf; rate 0.016 kg/ha,9.0
same,ABUTH herbicidal rating,ABUTH Velvetleaf; rate 0.032 kg/ha,7.0
same,ABUTH herbicidal rating,ABUTH Velvetleaf; rate 0.062 kg/ha,9.0
same,ABUTH herbicidal rating,ABUTH Velvetleaf; rate 0.125 kg/ha,9.0
same,CASOB herbicidal rating,CASOB Sicklepod [2]; rate 0.016 kg/ha,0.0
same,CASOB herbicidal rating,CASOB Sicklepod [2]; rate 0.032 kg/ha,1.3
same,CASOB herbicidal rating,CASOB Sicklepod [2]; rate 0.062 kg/ha,3.3
same,CASOB herbicidal rating,CASOB Sicklepod [2]; rate 0.125 kg/ha,2.3
same,ZEAMX herbicidal rating,"ZEAMX Corn, Field; rate 0.016 kg/ha",1.0
same,ZEAMX herbicidal rating,"ZEAMX Corn, Field; rate 0.032 kg/ha",3.7
same,ZEAMX herbicidal rating,"ZEAMX Corn, Field; rate 0.062 kg/ha",4.0
same,ZEAMX herbicidal rating,"ZEAMX Corn, Field; rate 0.125 kg/ha",6.7
same,Postemergence herbicidal rating GLXMAW,"GLXMAW Soybean, Williams [3]; 0.008 kg/ha",5.5
same,Postemergence herbicidal rating GLXMAW,"GLXMAW Soybean, Williams [3]; 0.016 kg/ha",5.5
same,Postemergence herbicidal rating GLXMAW,"GLXMAW Soybean, Williams [3]; 0.032 kg/ha",5.5
same,Postemergence herbicidal rating GLXMAW,"GLXMAW Soybean, Williams [3]; 0.062 kg/ha",7.0
same,melting point,,189 to 192 °C
same,TRZAWR herbicidal rating,[4],3.0
same,Postemergence herbicidal rating ORYSAT,"ORYSAT Rice, Tebonnet; 0.008 kg/ha",3.0
same,Postemergence herbicidal rating ORYSAT,"ORYSAT Rice, Tebonnet; 0.016 kg/ha",3.0
same,Postemergence herbicidal rating ORYSAT,"ORYSAT Rice, Tebonnet; 0.032 kg/ha",3.5
same,Postemergence herbicidal rating ORYSAT,"ORYSAT Rice, Tebonnet; 0.062 kg/ha",4.0
same,GLXMAW herbicidal rating,"GLXMAW Soybean, Williams [5]; rate 0.016 kg/ha",1.5
same,GLXMAW herbicidal rating,"GLXMAW Soybean, Williams [5]; rate 0.032 kg/ha",1.7
same,GLXMAW herbicidal rating,"GLXMAW Soybean, Williams [5]; rate 0.062 kg/ha",3.0
same,GLXMAW herbicidal rating,"GLXMAW Soybean, Williams [5]; rate 0.125 kg/ha",3.0
same,Postemergence herbicidal rating AMBEL,"AMBEL Ragweed, Common [6]; 0.008 kg/ha",5.0
same,Postemergence herbicidal rating AMBEL,"AMBEL Ragweed, Common [6]; 0.016 kg/ha",6.0
same,Postemergence herbicidal rating AMBEL,"AMBEL Ragweed, Common [6]; 0.032 kg/ha",8.0
same,Postemergence herbicidal rating AMBEL,"AMBEL Ragweed, Common [6]; 0.062 kg/ha",9.0
same,AMBEL herbicidal rating,"AMBEL Ragweed, Common [7]; rate 0.016 kg/ha",0.0
same,AMBEL herbicidal rating,"AMBEL Ragweed, Common [7]; rate 0.032 kg/ha",3.3
same,AMBEL herbicidal rating,"AMBEL Ragweed, Common [7]; rate 0.062 kg/ha",6.7
same,AMBEL herbicidal rating,"AMBEL Ragweed, Common [7]; rate 0.125 kg/ha",8.3
same,Postemergence herbicidal rating GALAP,GALAP Galium; 0.008 kg/ha,2.0
same,Postemergence herbicidal rating GALAP,GALAP Galium; 0.016 kg/ha,4.0
same,Postemergence herbicidal rating GALAP,GALAP Galium; 0.032 kg/ha,4.0
same,Postemergence herbicidal rating GALAP,GALAP Galium; 0.062 kg/ha,7.0
same,ECHCG herbicidal rating,ECHOG Barnyardgrass; rate 0.016 kg/ha,0.0
same,ECHCG herbicidal rating,ECHOG Barnyardgrass; rate 0.032 kg/ha,1.7
same,ECHCG herbicidal rating,ECHOG Barnyardgrass; rate 0.062 kg/ha,6.3
same,ECHCG herbicidal rating,ECHOG Barnyardgrass; rate 0.125 kg/ha,8.3
same,Postemergence herbicidal rating CASOB,CASOB Sicklepod [8]; 0.008 kg/ha,1.0
same,Postemergence herbicidal rating CASOB,CASOB Sicklepod [8]; 0.016 kg/ha,3.0
same,Postemergence herbicidal rating CASOB,CASOB Sicklepod [8]; 0.032 kg/ha,5.0
same,Postemergence herbicidal rating CASOB,CASOB Sicklepod [8]; 0.062 kg/ha,6.0
